# Measured values reported in patent US20260166170A1, “ANTIBODY DRUG CONJUGATE COMPRISING NMT INHIBITOR AND ITS USE” (MyricX Pharma Limited, priority 2022, published 2026).
# Experiments:
# [1] = tested on: BT474 breast cancer cells; experiment: Orthotopic breast cancer xenograft model; assay type: in vivo, NOD/SCID mice; settings: trastuzumab or ADC Example 1 2.5 or 5 mg/kg; NMT inhibitor 1 2 mg/kg
# Description: During the study, body weights were measured three times weekly for all animals. Animals were given Diet Gel for the entire duration on the study.
# [2] = tested on: JIMT-1 human breast xenograft; experiment: JIMT-1 breast cancer xenograft model; assay type: in vivo
# Excerpt: The study was terminated on the Study Day 60.
# [3] = tested on: VCaP human prostate cancer xenograft; experiment: VCaP prostate cancer xenograft model; assay type: in vivo, non-castrated male CB17/SCID mice
# Description: The objective of this study was to evaluate preclinically the in vivo therapeutic efficacy of ADC Example 4 in the treatment of subcutaneous VCaP human prostate cancer xenograft model in non-castrated male CB17/SCID mice.
# In this study, 144 mice were inoculated subcutaneously in the right front flank region with 1×10^7 viable VCaP tumour cells resuspended in 0.1 mL of PBS mixed with Matrigel (1:1) for tumour development on Study Day−20. 80 mice were assigned to 8 treatment groups when tumour volumes averaged ˜162.16 mm^3 on Study Day 0. Dosing commenced the following day and all animals were dosed intravenously with ADC Example 4, ifinatamab-deruxtecan (ifinatamab-Dxd) or unconjugated ifinatamab. All mice received two doses of test agent, on Study Day 1 and Study Day 8. The study was terminated on Study Day 30.
# LNCaP tumours = experiment: LNCaP prostate cancer xenograft model; assay type: in vivo, male NOD SCID mice; settings: IV, Q7D (x3); for Tumour growth inhibition (TGI, %): day 28
# Excerpt: Adjusted p value calculated by Kruskal-Wallis test and Dunn's multiple comparisons relative to vehicle control. […] C is the mean tumour volume of the control Group 1 mice on the measurement day and C0 is the mean tumour volume on Study Day 0.
Molecule,tumour volumes compared to vehicle alone ([2]; 2.5 mg/kg),tumour volumes compared to vehicle alone ([2]; 5 mg/kg),tumour volumes compared to vehicle alone ([3]; 2.5 mg/kg),tumour volumes compared to vehicle alone ([3]; 5 mg/kg),LNCaP tumour volume compared to vehicle control (LNCaP tumours; 5 mg/kg),LNCaP tumour volume compared to vehicle control (LNCaP tumours; 10 mg/kg),"Tumour growth inhibition (TGI, %) (LNCaP tumours; 10 mg/kg)",other results
"CNCc1cnc2ccc(-c3ccc(F)c(F)c3OCCc3c(C(O)C(C)(C)C)nn(C)c3C)cn12 (centres unmarked) [NMT inhibitor 1, 1-(4-(2-(2,3-difluoro-6-(3-((methylamino)methyl)imidazo[1,2-a]pyridin-6-yl)phenoxy)ethyl)-1,5-dimethyl-1H-pyrazol-3-yl)-2,2-dimethylpropan-1-ol]",,,,,,,,body weights of mice compared to vehicle control [1]: decreased significantly
sacituzumab govitecan [reference compound],significant decrease,significant decrease,,,,,,
ifinatamab,,,no significant difference,no significant difference,no significant effect,no significant effect,13.0%,
sacituzumab,no significant difference,significant decrease,,,,,,
"ifinatamab-DXd: ifinatamab-deruxtecan, comparator ADC (conjugate, chains of the INN, looked up, deruxtecan (DXd) payload, ifinatamab-deruxtecan, comparator ADC) VH: QVQLVQSGAEVKKPGSSVKVSCKASGYTFTNYVMHWVRQAPGQGLEWMGYINPYNDDVKYNEKFKGRVTITADESTSTAYMELSSLRSEDTAVYYCARWGYYGSPLYYFDYWGQGTLVTVSS VL: EIVLTQSPATLSLSPGERATLSCRASSRLIYMHWYQQKPGQAPRPLIYATSNLASGIPARFSGSGSGTDFTLTISSLEPEDFAVYYCQQWNSNPPTFGQGTKVEIK",,,no significant difference,significantly higher tumour volume,slowed the growth of LNCaP tumours to a lesser extent,significantly reduced the mean volume of LNCaP tumours,75.0%,"ΔTGI (Study Day 17) ([3]; 2.5 mg/kg IV QW × 2 weeks): 5.24%; ΔTGI (Study Day 17) ([3]; 5 mg/kg IV QW × 2 weeks): 2.86%; Day 28 tumour volume (mm^3, mean ± SEM) (LNCaP tumours; 5 mg/kg): 364.6 ± 51.7 mm^3; Tumour growth inhibition (TGI, %) (LNCaP tumours; 5 mg/kg): 58.8%; Day 28 tumour volume (mm^3, mean ± SEM) (LNCaP tumours; 10 mg/kg): 259.5 ± 50.3 mm^3"
